Assays:
Mysidopsis bahia = test: Dispersant toxicity testing, 48 hour LC50; conditions: in vivo
Experimental: Dispersant toxicity testing was performed by Coastal Bioanalysts.
This toxicity data was obtained using the concentrated product.

[1] = Surfactant screening test, visual emulsification of Prudhoe Bay Crude in river (sea) water; conditions: 1st set: pure surfactant, 10 ml added to 100 microliter PBC in 120 ml water; shaken 50 times, stand 10 min
Experimental: 120 ml of the river (sea) water is taken in a 130 ml bottle. Add 100 micro liter(μl) of Prudhoe Bay Crude to the bottle. Add […] of the pure test surfactant. The ratio of the surfactant to oil is 1:10, as per the spec. (the only difference is instead of 100 μl of the 1:10 mixture, the volume added was 110 μl) the mix was shaken vigorously 50 times and allowed to stand 10 min. to evaluate the effectiveness of the system and compare it to COREXIT 9500 at the same ratio.
The first set was with pure surfactants, the 2nd set was with two surfactants combination with 10 μl, in a 1:3 ratio and the 3rd was with a 3 or more surfactants system with 1:3 ratio but 10 μl, 20 μl, or 30 μl addition. The results are tabulated below:
10 μl added unless otherwise stated.
A combination of the above selected surfactants was conceived and formulations with the following variations were evaluated: […]

| SMILES | LC50 of the Control Toxicant, M. bahia (Mysidopsis bahia) | APPEARANCE STABILITY OF EMULSION [1] |
| --- | --- | --- |
| CCCCCCCCCCCCOS(=O)(=O)[O-].[Na+] [Dss] | The Control Toxicant (Dss): M. bahia 9.82 ppm |  |
| CCCCCCCC/C=C\CCCCCCCC(=O)OCC(O)CO (centres unmarked) [GMO, Glyceryl mono oleate] |  | Not good |

Source: patent publication US20020005386A1, “Water based oil dispersant” (Polychemical Corporation, priority 1999, published 2002)
